Assays:
[1] = system: Human lesion cells; test: MTT assay for sensitivity to fas-induced apoptosis in human lesion cells; type: cell-based; settings: for death with fas ligation (sensitivity to apoptosis): 24 h, 20% death without drug
Method: (§1) Cells for study were derived from human carotid artery atherosclerotic lesions, by published methods. Additionally, cell lines were subcloned and tested for sensitivity to fas ligation. In the present studies, clonal lines with known resistance to fas ligation were used.
(§2) Induction of apoptosis was achieved by reduction of serum concentration from 10% to 1% FBS for 24 hours prior to adding an activating antibody to fas (CH11, Upstate Biotechnology) at a typical concentration of 50-500 ng/ml. Typically 24-48 hours after fas ligation by CH11, cell survival was determined by measuring metabolic activity by the MTT method.
FIG. 3 depicts the effect of 2-methoxy-antimycin A3 (AA3) and gossypol on the sensitivity to apoptosis in human lesion cells. Human lesion cells were plated and treated as above for 24 hours with the specified concentrations of drug. Fas ligation was initiated with 50 ng/ml of activating antibody CH11 and 24 hours later the number of cell surviving was measured by their metabolism of MTT. Bars are mean±s.d. (n=4 per group). A reduction in MTT levels indicates cell death.
FIG. 4 depicts the effect of HA14-1 and 2,3-DCPE on sensitivity to fas-induced apoptosis. Human lesion cells were plated and treated as above for 24 hours with the specified concentrations […] of HA14-1 (H) or 2,3-DCPE (D). Fas ligation was initiated with 50 ng/ml of activating antibody CH11 and 24 hours later the number of cell surviving was measured by their metabolism of MTT. Bars are mean±s.d. (n=2 per group). A reduction in MTT levels indicates cell death.

[2] = system: R1 cells over-expressing Bcl-Xl (R1 bclXL); test: MTT cell survival after fas ligation (CH11), R1 cells over-expressing Bcl-Xl; type: cell-based, human; settings: AA 20 μg/ml; BCLI 20 μM; IFN 50 U/ml; SP 20 μM; CH11 50 ng/ml
Method: as §2
In one example, to determine whether the effect of BCLI and AA was via interaction with their intended targets (Bcl-Xl and Bcl-2), the drugs were tested in R1 cells over-expressing Bcl-Xl (R1 bclXL).
(§3) Referring to FIG. 2, human atherosclerosis-derived cells were pretreated with the specified drugs for 24 prior to treatment with the activating fas antibody CH11 (50 ng/ml). […] The drugs used were AA (20 μg/ml), BCLI (20 μM), interferon-gamma (IFN, 50 U/ml), and SP600125 (SP, 20 μM). The upper panel reports the MTT optical density (absorbance at 570 nm) without (control) or with fas ligation (+fas) as the mean, with error bars indicating±standard error of measurement (s.e.m., n=3 per group). The lower panel expresses % survival based on the MTT values above (MTT+fas/MTT Control)×100.

[3] = system: R1GFP (human atherosclerosis-derived cell line with known resistance to fas ligation); test: MTT cell survival after fas ligation (CH11), GFP-only expressing cell line; type: cell-based; settings: for effect on cell survival in the absence of fas (drug alone): AA3 20 μg/ml, no CH11
Method: as §1, §2
In addition to the BCL-inhibitor, this sensitizing effect was also observed with AA. As above, a human atherosclerosis-derived cell line with known resistance to fas ligation was used for study. In this case, the cell line was stably infected with a retrovirus expressing either an irrelevant marker gene (green fluorescent protein, GFP) or the marker gene and Bcl-Xl. In the GFP-only expressing cell line (R1GFP), fas ligation (50 ng/ml CH11) in low serum (1% FBS) led to only 15% cell death (85% survival) (see FIG. 2).
as §3

[4] = system: cell line R1 (human cell line derived from carotid artery atherosclerotic lesion); test: MTT cell survival after fas ligation (CH11), cell line R1; type: cell-based
Method: as §1, §2
However, in the presence of fas, the cells pretreated with BCLI underwent a high degree of apoptosis (70% cell death). […] Thus, the drug is neither toxic nor capable of inducing apoptosis alone at this concentration.
Referring to FIG. 1, A human cell line derived from carotid artery atherosclerotic lesion was plated at known density and then subgroups of 3 wells were treated with various drugs prior to exposure to fas ligation by the activating CH11 antibody (+fas). Pretreatment with flavopiridol (Flavo, 50 nM) or BCLI (Bcl-inh, 20 μM or 100 μM) was followed 24 hours later by addition of CH11 activating antibody to fas (50 ng/ml). After fas ligation, cell survival was evaluated 24 hours later by measuring the number of viable cells using the metabolic dye MTT, which is converted to a blue dye that absorbs at 570 nm. Values reflect the mean±s.e.m. (n=3 per group).

CCOC(=O)C1=C(N)Oc2ccc(Br)cc2C1C(C#N)C(=O)OCC (centres unmarked) [HA14-1, Ethyl-2-amino-6-bromo-4-(1-cyano-2-ethoxy-2-oxoethyl)-4H-chromene-3-carboxylate]
fas-independent death-inducing effect ([1]; 25-100 μM): fas-independent death-inducing effect
ability to sensitize cells to fas-induced apoptosis ([1]; HA14-1, all tested concentrations, CH11 50 ng/ml): did not demonstrate any ability to sensitize cell to apoptosis

Antimycin A [AA]
effectiveness in Bcl-Xl over-expressing cells compared with GFP control cells [2]: markedly less effective

Cl.OCCNCCCOc1cccc(Cl)c1Cl [DCPE, 2,[[3-(2,3-dichlorophenoxy)propyl]amino]ethanol-HCl]
fas-dependent sensitization to apoptosis ([1]; only at the highest tested dose of 100 μM, CH11 50 ng/ml): significant fas-dependent sensitization to apoptosis

CCCC[C@H]1C(=O)O[C@H](C)[C@H](NC(=O)c2cccc(NC=O)c2OC)C(=O)O[C@@H](C)[C@@H]1OC(=O)CC(C)C [AA3, 2-methoxyantimycin A3]
apoptosis in the presence of fas ([3]; 24 hour pretreatment 20 μg/ml, CH11 50 ng/ml, 1% FBS): 70%
effect on cell survival in the absence of fas (drug alone) ([3]; BCLI 20 μM): only a small effect on cell survival
death with fas ligation (sensitivity to apoptosis) ([1]; 10 μg/ml, CH11 50 ng/ml): 80%
death with fas ligation (sensitivity to apoptosis) ([1]; 20 μg/ml, CH11 50 ng/ml): 80%
death in the absence of fas ligation ([1]; AA3 at higher concentrations (above 20 μg/ml), no fas ligation): induced death even in the absence of fas ligation

interferon-gamma: interferon-gamma, a known sensitizing agent
sensitizing effect to fas ligation (in words) ([3]; BCLI 20 μM, interferon-gamma 50 U/ml, SP600125 20 μM, CH11 50 ng/ml): comparable effect
effectiveness in Bcl-Xl over-expressing cells compared with GFP control cells [2]: less effective

2,9-dimethoxy-11,12-dihydrodibenzo[c,g][1,2]-diazocine 5,6-dioxide (A) and 5,5′-Dimethoxy-2,2′-dinitrosobenzyl (B) [BCLI]
effect upon cell survival in the absence of the activating antibody to fas ([4]; 20 μM, no CH11): little or no effect
effect on cell survival in the absence of fas ligation ([4]; 100 μM, no CH11): substantial effect on cell survival
cell death (apoptosis) in the presence of fas ([4]; BCLI pretreatment 20 μM, 24 h, CH11 50 ng/ml, MTT 24 h later): 70%
effect on cell survival in the absence of fas (drug alone) ([3]; BCLI 20 μM): slightly more apoptosis alone
effectiveness in Bcl-Xl over-expressing cells compared with GFP control cells [2]: markedly less effective

Cc1cc2c(C(C)C)c(O)c(O)c(C=O)c2c(O)c1-c1c(C)cc2c(C(C)C)c(O)c(O)c(C=O)c2c1O [Gossypol, 2,2′-bis(8-Formyl-1,6,7-trihydroxy-5-isopropyl-3-methylnaphthalene)]
survival in the presence of fas ([1]; 2.5 μM, CH11 50 ng/ml, 80% survival without drug): 50%
